From PubChem BioAssay AID212 (DTP/NCI, 2004)
Where “and” joins values, the source holds several entries; their conditions need not be identical. Equal entries are not always repeated. Inconclusive results are not listed.

Test system: BDF1 mice, colon carcinoma 38 sc, T/C %
Test: NCI In Vivo Anticancer Drug Screen. Data for tumor model Colon Carcinoma 38 (subcutaneous) in B6D2F1 (BDF1) mice
Details: endpoint: median tumor weight (est.), higher = larger tumour
In short: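 Mice with transplanted tumors are treated with compound or vehicle. Survival or tumor size is then measured in both groups. The ratio of treated to control gives the reported figure.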

[1] = dose: 25.0 mg/kg/injection, schedule: Q07DX002 (ip), vehicle: saline with Tween-80
[2] = dose: 50.0 mg/kg/injection, schedule: Q07DX002 (ip), vehicle: saline with Tween-80
[3] = dose: 200.0 mg/kg/injection, schedule: Q07DX002 (ip), vehicle: saline with Tween-80
[4] = dose: 25.0 mg/kg/injection, schedule: Q07DX002 (ip), vehicle: saline
[5] = dose: 50.0 mg/kg/injection, schedule: Q07DX002 (ip), vehicle: saline
[6] = dose: 100.0 mg/kg/injection, schedule: Q07DX002 (ip), vehicle: saline
[7] = dose: 200.0 mg/kg/injection, schedule: Q07DX002 (ip), vehicle: saline
[8] = dose: 100.0 mg/kg/injection, schedule: Q07DX002 (ip), vehicle: saline with Tween-80
[9] = dose: 400.0 mg/kg/injection, schedule: Q07DX002 (ip), vehicle: saline
[10] = dose: 50.0 mg/kg/injection, schedule: Q07DX003 (ip), vehicle: suspension in saline

## C1CCC2OCCOCCOC3CCCCC3OCCOCCOC2C1 (stereo not given)
dose: 3.12 mg/kg/injection, schedule: Q07DX002 (ip), vehicle: Klucel (hydroxypropylcellulose) (HPC)
  T/C: 210 % of control and 96 % of control
dose: 6.25 mg/kg/injection, schedule: Q07DX002 (ip), vehicle: Klucel (hydroxypropylcellulose) (HPC)
  T/C: 176 % of control
dose: 12.5 mg/kg/injection, schedule: Q07DX002 (ip), vehicle: Klucel (hydroxypropylcellulose) (HPC)
  T/C: 85 % of control
dose: 50.0 mg/kg/injection, schedule: Q07DX002 (ip), vehicle: Klucel (hydroxypropylcellulose) (HPC)
  T/C: 85 % of control

## Oc1cc2c3c(c1)c1cc4c(cc1c[n+]3CC2)OCO4
dose: 3.12 mg/kg/injection, schedule: Q07DX002 (ip), vehicle: water
  T/C: 102 % of control
dose: 6.25 mg/kg/injection, schedule: Q07DX002 (ip), vehicle: water
  T/C: 77 % of control and 95 % of control
dose: 25.0 mg/kg/injection, schedule: Q07DX002 (ip), vehicle: water
  T/C: 71 % of control
dose: 50.0 mg/kg/injection, schedule: Q07DX002 (ip), vehicle: water
  T/C: 67 % of control and 71 % of control

## Nc1nc(-c2cccc3ccccc23)cc2ccccc12
[1]
  T/C: 108 % of control
[2]
  T/C: 123 % of control
[3]
  T/C: 77 % of control
dose: 800.0 mg/kg/injection, schedule: Q07DX002 (ip), vehicle: saline with Tween-80
  T/C: 108 % of control

## NC1CCCCC1N.O=C1C=CC(=C(c2ccc(O)cc2)c2ccccc2S(=O)(=O)[O-])C=C1.O=[N+]([O-])[O-].[Pt+4]
dose: 1.56 mg/kg/injection, schedule: Q07DX002 (ip), vehicle: saline
  T/C: 14 % of control

## CCC(C(=O)O)C(=O)O.[NH-]CC1CCCC[N-]1.[Pt+2]
[4]
  T/C: 305 % of control
[5]
  T/C: 404 % of control
[6]
  T/C: 209 % of control
[7]
  T/C: 239 % of control

## Brc1ccc(C[N+]23CN4CN(CN(C4)C2)C3)cc1
dose: 12.5 mg/kg/injection, schedule: Q07DX003 (ip), vehicle: saline with Tween-80
  T/C: 121 % of control
dose: 25.0 mg/kg/injection, schedule: Q07DX003 (ip), vehicle: saline with Tween-80
  T/C: 79 % of control
dose: 50.0 mg/kg/injection, schedule: Q07DX003 (ip), vehicle: saline with Tween-80
  T/C: 108 % of control
dose: 100.0 mg/kg/injection, schedule: Q07DX003 (ip), vehicle: saline with Tween-80
  T/C: 95 % of control
dose: 200.0 mg/kg/injection, schedule: Q07DX003 (ip), vehicle: saline with Tween-80
  T/C: 62 % of control

## CN=C(N)N/N=C(\C)c1ccc2oc3ccc(/C(C)=N/NC(N)=NC)cc3c2c1
[1]
  T/C: 117 % of control
[2]
  T/C: 100 % of control
[8]
  T/C: 66 % of control

## Cc1cc(O)c(N=Nc2ccc(C(=O)O)cc2)cc1C
[1]
  T/C: 108 % of control
[2]
  T/C: 104 % of control
[8]
  T/C: 100 % of control
[3]
  T/C: 55 % of control
dose: 400.0 mg/kg/injection, schedule: Q07DX002 (ip), vehicle: saline with Tween-80
  T/C: 84 % of control

## OCC1(CO)COC2(CCCCC2)N1
[6]
  T/C: 118 % of control and 102 % of control
[9]
  T/C: 112 % of control and 122 % of control

## CCCCCCCCCCS(=O)CC(CO)NC(=O)/C=C/c1c(C)[nH]c(=O)[nH]c1=O (stereo not given)
dose: 1.5 mg/kg/injection, schedule: Q07DX002 (ip), vehicle: distilled water + Tween-80
  T/C: 76 % of control and 96 % of control
dose: 3.0 mg/kg/injection, schedule: Q07DX002 (ip), vehicle: distilled water + Tween-80
  T/C: 109 % of control and 96 % of control
dose: 12.0 mg/kg/injection, schedule: Q07DX002 (ip), vehicle: distilled water + Tween-80
  T/C: 112 % of control and 115 % of control
dose: 48.0 mg/kg/injection, schedule: Q07DX002 (ip), vehicle: distilled water + Tween-80
  T/C: 80 % of control

## CCCCCCCC(=O)[O][Hg][CH2]C1COC([CH2][Hg][O]C(=O)CCCCCCC)CO1 (stereo not given)
dose: 3.12 mg/kg/injection, schedule: Q07DX002 (ip), vehicle: saline with Tween-80
  T/C: 76 % of control and 97 % of control
dose: 6.25 mg/kg/injection, schedule: Q07DX002 (ip), vehicle: saline with Tween-80
  T/C: 101 % of control
[1]
  T/C: 108 % of control and 105 % of control
[8]
  T/C: 81 % of control

## N#CC(C#N)=C/C=C/c1cccc([N+](=O)[O-])c1
dose: 6.25 mg/kg/injection, schedule: Q07DX003 (ip), vehicle: Klucel (hydroxypropylcellulose) (HPC)
  T/C: 79 % of control
dose: 12.5 mg/kg/injection, schedule: Q07DX003 (ip), vehicle: Klucel (hydroxypropylcellulose) (HPC)
  T/C: 77 % of control
dose: 25.0 mg/kg/injection, schedule: Q07DX003 (ip), vehicle: Klucel (hydroxypropylcellulose) (HPC)
  T/C: 76 % of control
dose: 50.0 mg/kg/injection, schedule: Q07DX003 (ip), vehicle: Klucel (hydroxypropylcellulose) (HPC)
  T/C: 60 % of control

## COc1cc(C)c2c(c1C=O)Oc1c(c(C)c(O)c3c1C(O)OC3=O)OC2=O (stereo not given)
dose: 3.12 mg/kg/injection, schedule: Q07DX003 (ip), vehicle: suspension in saline
  T/C: 93 % of control
dose: 6.25 mg/kg/injection, schedule: Q07DX003 (ip), vehicle: suspension in saline
  T/C: 60 % of control
dose: 12.5 mg/kg/injection, schedule: Q07DX003 (ip), vehicle: suspension in saline
  T/C: 65 % of control
dose: 25.0 mg/kg/injection, schedule: Q07DX003 (ip), vehicle: suspension in saline
  T/C: 93 % of control
[10]
  T/C: 87 % of control

## CC[As](=O)(O)CC
dose: 12.5 mg/kg/injection, schedule: Q07DX002 (ip), vehicle: saline
  T/C: 101 % of control
[4]
  T/C: 110 % of control
[6]
  T/C: 81 % of control
[7]
  T/C: 97 % of control
[9]
  T/C: 110 % of control

## CN(Cc1cnc2nc(N)nc(N)c2n1)c1ccc(C(=O)N[C@@H](CCC(=O)O)C(=O)O)cc1
dose: 1.25 mg/kg/injection, schedule: Q07DX002 (ip), vehicle: sodium bicarbonate
  T/C: 105 % of control
dose: 2.5 mg/kg/injection, schedule: Q07DX002 (ip), vehicle: sodium bicarbonate
  T/C: 167 % of control and 170 % of control
dose: 5.0 mg/kg/injection, schedule: Q07DX002 (ip), vehicle: sodium bicarbonate
  T/C: 122 % of control
dose: 10.0 mg/kg/injection, schedule: Q07DX002 (ip), vehicle: sodium bicarbonate
  T/C: 111 % of control
dose: 20.0 mg/kg/injection, schedule: Q07DX002 (ip), vehicle: sodium bicarbonate
  T/C: 115 % of control and 117 % of control

## CC1(C)CC2(C)OC2C2(C1)N=NC(=Nc1ccccc1)O2 (stereo not given)
[2]
  T/C: 119 % of control
[8]
  T/C: 101 % of control
[3]
  T/C: 213 % of control

## O=C(O)C1(C(=O)O)CCC1.[NH2-].[NH2-].[Pt+2]
dose: 6.25 mg/kg/injection, schedule: Q07DX002 (ip), vehicle: dextrose
  T/C: 81 % of control
dose: 6.25 mg/kg/injection, schedule: Q07DX003 (ip), vehicle: other
  T/C: 53 % of control
dose: 12.5 mg/kg/injection, schedule: Q07DX003 (ip), vehicle: other
  T/C: 81 % of control
dose: 25.0 mg/kg/injection, schedule: Q07DX003 (ip), vehicle: dextrose
  T/C: 64 % of control
dose: 25.0 mg/kg/injection, schedule: Q07DX003 (ip), vehicle: other
  T/C: 74 % of control
dose: 50.0 mg/kg/injection, schedule: Q07DX003 (ip), vehicle: dextrose
  T/C: 34 % of control
dose: 50.0 mg/kg/injection, schedule: Q07DX003 (ip), vehicle: other
  T/C: 42 % of control
dose: 100.0 mg/kg/injection, schedule: Q07DX003 (ip), vehicle: dextrose
  T/C: 25 % of control
dose: 100.0 mg/kg/injection, schedule: Q07DX003 (ip), vehicle: other
  T/C: 21 % of control

## N=c1ccn2c(n1)OC1C(O)C(CO)OC12 (stereo not given)
[4]
  T/C: 84 % of control
[5]
  T/C: 105 % of control
[10]
  T/C: 94 % of control
dose: 100.0 mg/kg/injection, schedule: Q07DX003 (ip), vehicle: suspension in saline
  T/C: 73 % of control
dose: 200.0 mg/kg/injection, schedule: Q07DX003 (ip), vehicle: suspension in saline
  T/C: 66 % of control
dose: 400.0 mg/kg/injection, schedule: Q07DX003 (ip), vehicle: suspension in saline
  T/C: 51 % of control
dose: 800.0 mg/kg/injection, schedule: Q07DX003 (ip), vehicle: suspension in saline
  T/C: 20 % of control
dose: 1600.0 mg/kg/injection, schedule: Q07DX002 (ip), vehicle: saline
  T/C: 31 % of control
dose: 1600.0 mg/kg/injection, schedule: Q07DX003 (ip), vehicle: suspension in saline
  T/C: 19 % of control

## F[B-](F)(F)F
dose: 12.5 mg/kg/injection, schedule: Q07DX002 (ip), vehicle: gum acacia
  T/C: 105 % of control
dose: 25.0 mg/kg/injection, schedule: Q07DX002 (ip), vehicle: gum acacia
  T/C: 90 % of control
dose: 50.0 mg/kg/injection, schedule: Q07DX002 (ip), vehicle: gum acacia
  T/C: 95 % of control
dose: 200.0 mg/kg/injection, schedule: Q07DX002 (ip), vehicle: gum acacia
  T/C: 64 % of control
dose: 400.0 mg/kg/injection, schedule: Q07DX002 (ip), vehicle: gum acacia
  T/C: 77 % of control
